According to patent US20160235677A1, “METHOD OF CONVERTING A CRYSTALLINE COMPOUND TO AN AMORPHOUS COMPOUND, METHOD OF INCREASING THE SOLUBILITY OF A CRYSTALLINE COMPOUND IN A BIORELEVANT FLUID, AND NANOPARTICLES THAT ACHIEVE SUPERSATURATION” (Nanocopoeia, LLC., priority 2014, published 2016):
In brackets after ≈: the same amount, converted by molar mass. Like-named read-outs stand apart in the source and are kept apart here.

Legend:
[1] = X-Ray Powder Diffraction (XRD) crystallinity / physical state; format: physicochemical; settings: griseofulvin materials, result in words
Procedure: X-ray powder diffraction is performed at room temperature using a Bruker D8 Discover using a Cu Kα radiation, point source filtered with a graphite monochromator and a Bruker Hi-Star two-dimensional x-ray detector (Bruker, Karlsruhe, Germany). Powder samples are pressed onto a sample holder made of single-crystal quartz cut off-axis. The reflected intensity is collected at 0.04° resolution from 2Θ=2° to 62° with an acquisition time of 20 minutes. Data analysis is performed using the JADE 8.0 software package (Materials Data Inc., Livermore, Calif.) with whole pattern fitting. The test method has a detection limit of 2% crystallinity. […]

[2] = Caco-2 Monolayer Test Method; format: in vitro ADME; settings: human; Caco-2 monolayers, apical to basolateral, powder equivalent to 200 μg GF in 1 mL buffer pH 7.4, 2 h
Procedure: Caco-2 monolayers are prepared in Millipore 96-cell Caco-2 plates and are used after a 3-week differentiation period. The monolayers separate the apical, or donor well, from the basolateral, or recipient well. The buffer used for the apical side is 1.98 g/L glucose in 10 mM HEPES, Hank's Balanced Salt Solution (HBSS) lx, with calcium, magnesium, without phenol red (HyClone, Logan, Utah) pH 7.4. The impermeable dye Lucifer yellow (in an amount of 100 μM) is added to test monolayer integrity. The basolateral side buffer is buffer, pH 7.4, without dye. […] The amount of test powder is selected to assure that if the powder was completely dissolved, the amount is sufficient to achieve ˜12 to 13 times the saturation concentration of the compound of interest previously measured in HBSS (15 μg/mL), in other words, a supersaturated solution. […] Where the compound of interest is not a substrate for p-glycoprotein (pGP), B→A efflux is not measured.
Buffer test samples are added to apical wells at 1 h after preparation and buffer alone is added to the basolateral side. […] The plates are assumed to be intact if there is no increase in fluorescence from leaking Lucifer yellow dye from the apical side. Individual cell monolayers are assumed intact if there is no increase in fluorescence in aliquots taken from the basolateral wells. […]

[3] = Equilibrium / saturation solubility in test media; format: physicochemical; settings: GF, previously measured
[4] = Dissolution in Biorelevant Medium Using Non-Sink Condition (griseofulvin powders in FaSSIF); format: physicochemical; settings: GF dissolution in FaSSIF, 5 hour experiment
Procedure: A modified low-volume shaker flask method is used to assess the dissolution behavior of samples under supersaturated conditions. A 75 mL aliquot of FaSSIF, adjusted to pH 6.5, is added to each of six 150 mL Erlenmeyer flasks, which are then stoppered. The liquid is then heated to and maintained at 37° C.±1° C. using a benchtop incubated orbital shaker with a multi position stir plate (Forma Scientific 4520, Thermo Fisher Scientific, Waltham, Mass.). A 38 mm×9 mm stir bar is placed in each flask and stirring is started at 150 rotations per minute (RPM). A control sample, containing the compound of interest, and experimental samples are added to separate flasks in amounts sufficient to provide an amount of the compound of interest equivalent to the control sample. At each of 5 min, 15 min, 20 min, 30 min, 45 min, 60 min, 120 min, 240 min, and 300 min, 3 mL of dissolution media is removed from each flask, and immediately filtered through a 13 mm, 0.2 μm nylon filter with glass prefilter (EMD Millipore, Billerica, Mass.) after first discarding the first 2 mL of the sample. […]
The HPLC analysis is performed using an Ace C18, 2.1×150 mm, 3 μm chromatographic column maintained at 30° C. […] Quantification is performed based on linear calibration curve ranging from 10 ng/mL to 1000 ng/mL using peak response ratio.
For the Dissolution in Biorelevant Medium Using Non-Sink Condition analysis, a 24 mg sample of Control 1, i.e., griseofulvin powder, and an amount of Examples 1-7 sufficient to provide an amount of griseofulvin equivalent to the amount of Control 1, i.e., 24 mg, was added to each flask. Quantification was performed based on linear calibration curve ranging from 10 to 1000 ng/mL using peak response ratio. […]
Dry powder produced as describe above in Examples 8-11 was evaluated in the biorelevant medium FaSSIF, comparing ENS-processed powders with physical mixtures at similar ratios of GF:SP. […]

[5] = non-sink, 24 mg GF equivalent in 75 mL, 37° C.

COC1=CC(=O)C[C@@H](C)[C@]12Oc1c(Cl)c(OC)cc(OC)c1C2=O [Control 1, (+)-griseofulvin]
physical state by XRD [1]: completely crystalline material | Papp A→B at 2 h, 200 μg/mL [2]: 28 ± 2.5 ×10⁻⁶ cm/s | solubility thermodynamic ([3]; HBSS, saline or isotonic, read-out: saturation concentration in HBSS): 15 µg/mL (≈ 42.5 µM) | solubility thermodynamic ([3]; water, thermodynamic from solid, read-out: equilibrium solubility in water): 6 to 10 µg/mL (≈ 17 to 28.3 µM) | Cmax [4, 5]: 18.3 µg/mL | Tmax [4, 5]: 30 min | AUC ([4]; area under the concentration-time curve): 5,202
